Measurements as given in patent US8927717B1, “Thiochromeno[2,3-c]quinolin-12-one derivatives, preparation method and application thereof” (National Defense Medical Center, priority 2014, dated 2015).

Assays:
CCRF-CEM = assay type: cell-based; details: Leukemia; 10^−5 molar; 48 hours; SRB
HL-60(TB) = assay type: cell-based; details: Leukemia; 10^−5 molar; 48 hours; SRB
K-562 = assay type: cell-based; details: Leukemia; 10^−5 molar; 48 hours; SRB
MOLT-4 = assay type: cell-based; details: Leukemia; 10^−5 molar; 48 hours; SRB
RPMI-8226 = assay type: cell-based; details: Leukemia; 10^−5 molar; 48 hours; SRB
SR = assay type: cell-based; details: Leukemia; 10^−5 molar; 48 hours; SRB
A549/ATCC = assay type: cell-based; details: Non-small cell lung cancer; 10^−5 molar; 48 hours; SRB
HOP-62 = assay type: cell-based; details: Non-small cell lung cancer; 10^−5 molar; 48 hours; SRB
HOP-92 = assay type: cell-based; details: Non-small cell lung cancer; 10^−5 molar; 48 hours; SRB
NCI-H226 = assay type: cell-based; details: Non-small cell lung cancer; 10^−5 molar; 48 hours; SRB
NCI-H23 = assay type: cell-based; details: Non-small cell lung cancer; 10^−5 molar; 48 hours; SRB
NCI-H460 = assay type: cell-based; details: Non-small cell lung cancer; 10^−5 molar; 48 hours; SRB
NCI-H522 = assay type: cell-based; details: Non-small cell lung cancer; 10^−5 molar; 48 hours; SRB
COLO 205 = assay type: cell-based; details: Colon cancer; 10^−5 molar; 48 hours; SRB
HCC-2998 = assay type: cell-based; details: Colon cancer; 10^−5 molar; 48 hours; SRB
HCT-116 = assay type: cell-based; details: Colon cancer; 10^−5 molar; 48 hours; SRB
HCT-15 = assay type: cell-based; details: Colon cancer; 10^−5 molar; 48 hours; SRB
HT29 = assay type: cell-based; details: Colon cancer; 10^−5 molar; 48 hours; SRB
KM12 = assay: cells; assay type: cell-based; details: Colon cancer; 10^−5 molar; 48 hours; SRB
SW-620 = assay type: cell-based; details: Colon cancer; 10^−5 molar; 48 hours; SRB
SF-268 = assay type: cell-based; details: CNS cancer; 10^−5 molar; 48 hours; SRB
SF-295 = assay type: cell-based; details: CNS cancer; 10^−5 molar; 48 hours; SRB
SF-539 = assay type: cell-based; details: CNS cancer; 10^−5 molar; 48 hours; SRB
SNB-19 = assay type: cell-based; details: CNS cancer; 10^−5 molar; 48 hours; SRB
SNB-75 = assay type: cell-based; details: CNS cancer; 10^−5 molar; 48 hours; SRB
U251 = assay type: cell-based; details: CNS cancer; 10^−5 molar; 48 hours; SRB
LOX IMVI = assay type: cell-based; details: Melanoma; 10^−5 molar; 48 hours; SRB
MALME-3M = assay type: cell-based; details: Melanoma; 10^−5 molar; 48 hours; SRB
M14 = assay type: cell-based; details: Melanoma; 10^−5 molar; 48 hours; SRB
MDA-MB-435 = assay type: cell-based; details: Melanoma; 10^−5 molar; 48 hours; SRB
SK-MEL-2 = assay type: cell-based; details: Melanoma; 10^−5 molar; 48 hours; SRB
SK-MEL-28 = assay type: cell-based; details: Melanoma; 10^−5 molar; 48 hours; SRB
SK-MEL-5 = assay type: cell-based; details: Melanoma; 10^−5 molar; 48 hours; SRB
UACC-257 = assay type: cell-based; details: Melanoma; 10^−5 molar; 48 hours; SRB
UACC-62 = assay type: cell-based; details: Melanoma; 10^−5 molar; 48 hours; SRB
IGROV1 = assay type: cell-based; details: Ovarian cancer; 10^−5 molar; 48 hours; SRB
OVCAR-3 = assay type: cell-based; details: Ovarian cancer; 10^−5 molar; 48 hours; SRB
OVCAR-4 = assay type: cell-based; details: Ovarian cancer; 10^−5 molar; 48 hours; SRB
OVCAR-5 = assay type: cell-based; details: Ovarian cancer; 10^−5 molar; 48 hours; SRB
OVCAR-8 = assay type: cell-based; details: Ovarian cancer; 10^−5 molar; 48 hours; SRB
NCI/ADR-RES = assay type: cell-based; details: Ovarian cancer; 10^−5 molar; 48 hours; SRB
SK-OV-3 = assay type: cell-based; details: Ovarian cancer; 10^−5 molar; 48 hours; SRB
786-0 = assay type: cell-based; details: Renal cancer; 10^−5 molar; 48 hours; SRB
A498 = assay type: cell-based; details: Renal cancer; 10^−5 molar; 48 hours; SRB
ACHN = assay type: cell-based; details: Renal cancer; 10^−5 molar; 48 hours; SRB
CAKI-1 = assay type: cell-based; details: Renal cancer; 10^−5 molar; 48 hours; SRB
RXF 393 = assay type: cell-based; details: Renal cancer; 10^−5 molar; 48 hours; SRB
SN12C = assay type: cell-based; details: Renal cancer; 10^−5 molar; 48 hours; SRB
TK-10 = assay type: cell-based; details: Renal cancer; 10^−5 molar; 48 hours; SRB
UO-31 = assay type: cell-based; details: Renal cancer; 10^−5 molar; 48 hours; SRB
PC-3 = assay type: cell-based; details: Prostate cancer; 10^−5 molar; 48 hours; SRB
DU-145 = assay type: cell-based; details: Prostate cancer; 10^−5 molar; 48 hours; SRB
MCF7 = assay type: cell-based; details: Breast cancer; 10^−5 molar; 48 hours; SRB
MDA-MB-231/ATCC = assay type: cell-based; details: Breast cancer; 10^−5 molar; 48 hours; SRB
HS 578T = assay type: cell-based; details: Breast cancer; 10^−5 molar; 48 hours; SRB
BT-549 = assay type: cell-based; details: Breast cancer; 10^−5 molar; 48 hours; SRB
T-47D = assay type: cell-based; details: Breast cancer; 10^−5 molar; 48 hours; SRB
MDA-MB-486 = assay type: cell-based; details: Breast cancer; 10^−5 molar; 48 hours; SRB
60 cancer cell lines = assay: NCI 60-cell screen, SRB, whole panel (mean, delta, range); assay type: cell-based; details: 10^−5 molar, 48 hours, SRB

O=c1c2cc(Cl)ccc2sc2c(N3CCN(Cc4ccccc4)CC3)nc3ccccc3c12 [Compound 11, 6-(4-Benzylpiperazin-1-yl)-10-chloro-12H-thiochromeno[2,3-c]quinolin-12-one]
Growth percent CCRF-CEM (CCRF-CEM): 95.42% | Growth percent HL-60(TB) (HL-60(TB)): 100.96% | Growth percent K-562 (K-562): 87.84% | Growth percent MOLT-4 (MOLT-4): 90.91% | Growth percent RPMI-8226 (RPMI-8226): 96.63% | Growth percent SR (SR): 85.15% | Growth percent A549/ATCC (A549/ATCC): 106.37% | Growth percent HOP-62 (HOP-62): 87.72% | Growth percent HOP-92 (HOP-92): 70.17% | Growth percent NCI-H226 (NCI-H226): 88.98% | Growth percent NCI-H23 (NCI-H23): 89.94% | Growth percent NCI-H460 (NCI-H460): 95.57% | Growth percent NCI-H522 (NCI-H522): 96.69% | Growth percent COLO 205 (COLO 205): 105.64% | Growth percent HCC-2998 (HCC-2998): 99.32% | Growth percent HCT-116 (HCT-116): 98.59% | Growth percent HCT-15 (HCT-15): 94.51% | Growth percent HT29 (HT29): 102.71% | Growth percent KM12 (KM12): 107.75% | Growth percent SW-620 (SW-620): 93.08% | Growth percent SF-268 (SF-268): 100.42% | Growth percent SF-295 (SF-295): 94.34% | Growth percent SF-539 (SF-539): 108.56% | Growth percent SNB-19 (SNB-19): 95.52% | Growth percent SNB-75 (SNB-75): 82.62% | Growth percent U251 (U251): 96.69% | Growth percent LOX IMVI (LOX IMVI): 94.22% | Growth percent MALME-3M (MALME-3M): 112.36% | Growth percent M14 (M14): 93.00% | Growth percent MDA-MB-435 (MDA-MB-435): 96.99% | Growth percent SK-MEL-2 (SK-MEL-2): 107.37% | Growth percent SK-MEL-28 (SK-MEL-28): 104.19% | Growth percent SK-MEL-5 (SK-MEL-5): 98.38% | Growth percent UACC-257 (UACC-257): 95.39% | Growth percent UACC-62 (UACC-62): 96.00% | Growth percent IGROV1 (IGROV1): 93.49% | Growth percent OVCAR-3 (OVCAR-3): 101.69% | Growth percent OVCAR-4 (OVCAR-4): 102.43% | Growth percent OVCAR-5 (OVCAR-5): 111.92% | Growth percent OVCAR-8 (OVCAR-8): 98.54% | Growth percent NCI/ADR-RES (NCI/ADR-RES): 98.31% | Growth percent SK-OV-3 (SK-OV-3): 94.79% | Growth percent 786-0 (786-0): 105.57% | Growth percent A498 (A498): 94.17% | Growth percent ACHN (ACHN): 96.39% | Growth percent CAKI-1 (CAKI-1): 94.03% | Growth percent RXF 393 (RXF 393): 100.71% | Growth percent SN12C (SN12C): 97.70% | Growth percent TK-10 (TK-10): 124.99% | Growth percent UO-31 (UO-31): 64.91% | Growth percent PC-3 (PC-3): 89.12% | Growth percent DU-145 (DU-145): 111.61% | Growth percent MCF7 (Table 2: MCF) (MCF7): 68.32% | Growth percent MDA-MB-231/ATCC (MDA-MB-231/ATCC): 89.11% | Growth percent HS 578T (HS 578T): 76.42% | Growth percent BT-549 (BT-549): 114.05% | Growth percent T-47D (T-47D): 89.22% | Growth percent MDA-MB-486 (MDA-MB-486): 98.53% | Growth percent, Delta (60 cancer cell lines; delta over the cell panel): 31.28% | Growth percent, Mean (60 cancer cell lines; mean over the cell panel): 96.19% | Growth percent, Range (60 cancer cell lines; range over the cell panel): 60.08% | melting point: 191 to 193 °C
